Source: PubChem BioAssay (NCI)
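Cells were grown in 96-well plates and exposed to each compound for 48 hours at five concentrations; endpoints were interpolated linearly between bracketing concentrations, or set to the highest concentration if not reached. The concentration for 50% growth inhibition is given as GI50. At the TGI there is no net growth.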

Assays:
Assay in all cases: NCI anticancer screen, dose series, 48 h
NCI-H23 lung = system: NCI-H23 lung
OVCAR-8 ovarian = system: OVCAR-8 ovarian
HS 578T breast = system: HS 578T breast
SK-MEL-28 melanoma = system: SK-MEL-28 melanoma
SK-MEL-5 melanoma = system: SK-MEL-5 melanoma
UACC-257 melanoma = system: UACC-257 melanoma
NCI-H460 lung = system: NCI-H460 lung
SF-539 CNS = system: SF-539 CNS
SK-MEL-2 melanoma = system: SK-MEL-2 melanoma
MDA-MB-435 = system: MDA-MB-435

C/C(=C\c1ccn(-c2ccccc2N)n1)[C@@H]1C[C@@H]2O[C@]2(C)CCC[C@H](C)[C@H](O)[C@@H](C)C(=O)C(C)(C)[C@@H](O)CC(=O)O1
GI50 (NCI-H23 lung): 0.0663 µM
TGI (NCI-H23 lung): > 50 µM
GI50 (OVCAR-8 ovarian): 0.0617 µM
TGI (OVCAR-8 ovarian): > 50 µM
GI50 (HS 578T breast): 0.0658 µM
TGI (HS 578T breast): 10 µM
GI50 (SK-MEL-28 melanoma): 1.07 µM
TGI (SK-MEL-28 melanoma): > 50 µM
GI50 (SK-MEL-5 melanoma): 0.0286 µM
TGI (SK-MEL-5 melanoma): > 50 µM
TGI (UACC-257 melanoma): > 50 µM
GI50 (NCI-H460 lung): 0.0201 µM
TGI (NCI-H460 lung): > 50 µM
GI50 (SF-539 CNS): 0.0334 µM
TGI (SF-539 CNS): 0.236 µM
GI50 (SK-MEL-2 melanoma): 0.0819 µM
TGI (SK-MEL-2 melanoma): > 50 µM

O=C(O)C(Cc1cnc[nH]1)N1C(=O)c2ccccc2C1=O (centres undefined)
TGI (NCI-H23 lung): > 100 µM
TGI (OVCAR-8 ovarian): > 100 µM
TGI (HS 578T breast): > 100 µM
TGI (SK-MEL-28 melanoma): > 100 µM
TGI (SK-MEL-5 melanoma): > 100 µM
TGI (UACC-257 melanoma): > 100 µM
TGI (NCI-H460 lung): > 100 µM
TGI (MDA-MB-435): > 100 µM
TGI (SK-MEL-2 melanoma): > 100 µM

C[N+]1=c2c3cccc4cccc(c(=O)n2CC1)c43
TGI (NCI-H23 lung): 32.3 µM
TGI (OVCAR-8 ovarian): 80.9 µM
TGI (SK-MEL-28 melanoma): 30.1 µM
TGI (SK-MEL-5 melanoma): 32.8 µM
TGI (UACC-257 melanoma): 30 µM
TGI (NCI-H460 lung): 28.2 µM
TGI (SF-539 CNS): 32.2 µM
TGI (SK-MEL-2 melanoma): 34.8 µM

O=C1C2C(C(=O)N1c1ccccc1)C1c3ccccc3C2C2C(=O)N(c3ccccc3)C(=O)C21 (centres undefined)
TGI (NCI-H23 lung): > 100 µM
TGI (OVCAR-8 ovarian): > 100 µM
TGI (SK-MEL-28 melanoma): > 100 µM
TGI (SK-MEL-5 melanoma): > 100 µM
TGI (UACC-257 melanoma): > 100 µM
TGI (NCI-H460 lung): > 100 µM
TGI (SF-539 CNS): 31.4 µM
TGI (SK-MEL-2 melanoma): 6.52 µM

CC(C)/C=C1\CCC(CN2CCOCC2)C1=O (centres undefined)
TGI (NCI-H23 lung): 33.9 µM
TGI (OVCAR-8 ovarian): > 40.8 µM
TGI (SK-MEL-28 melanoma): 32.2 µM
TGI (SK-MEL-5 melanoma): 36.8 µM
TGI (UACC-257 melanoma): 20.1 µM
TGI (NCI-H460 lung): > 60.7 µM
TGI (SF-539 CNS): 29.3 µM
TGI (SK-MEL-2 melanoma): 35.6 µM

CCC[CH2][Sn]([CH2]CCC)([O]C(=O)c1cc(OC)c(OC)cc1OC)[O][Sn]([CH2]CCC)([CH2]CCC)[O]C(=O)c1cc(OC)c(OC)cc1OC
GI50 (NCI-H23 lung): 0.313 µM
TGI (NCI-H23 lung): 1.19 µM
GI50 (OVCAR-8 ovarian): 0.583 µM
TGI (OVCAR-8 ovarian): 1.89 µM
GI50 (SK-MEL-28 melanoma): 0.297 µM
TGI (SK-MEL-28 melanoma): 1.02 µM
GI50 (SK-MEL-5 melanoma): 0.898 µM
TGI (SK-MEL-5 melanoma): 2.15 µM
GI50 (UACC-257 melanoma): 0.276 µM
TGI (UACC-257 melanoma): 0.883 µM
GI50 (NCI-H460 lung): 1.3 µM
TGI (NCI-H460 lung): 2.85 µM
GI50 (SF-539 CNS): 0.314 µM
TGI (SF-539 CNS): 1.01 µM
GI50 (SK-MEL-2 melanoma): 0.173 µM
TGI (SK-MEL-2 melanoma): 0.824 µM

C/C(CC(=O)NCCc1ccccc1)=N\NS(=O)(=O)c1ccc(C)cc1
TGI (NCI-H23 lung): > 100 µM
TGI (OVCAR-8 ovarian): > 100 µM
TGI (SK-MEL-28 melanoma): > 100 µM
TGI (SK-MEL-5 melanoma): > 100 µM
TGI (UACC-257 melanoma): > 100 µM
TGI (NCI-H460 lung): > 100 µM
TGI (SF-539 CNS): > 100 µM
TGI (SK-MEL-2 melanoma): > 100 µM

COc1cc(-c2nc3ccccc3s2)ccc1OCCCCOc1cc2c(cc1OC)C(=O)N1CCC[C@H]1C=N2
GI50 (NCI-H23 lung): 1.47 µM
TGI (NCI-H23 lung): 4.72 µM
GI50 (OVCAR-8 ovarian): 1.99 µM
TGI (OVCAR-8 ovarian): 22.7 µM
GI50 (HS 578T breast): 1.23 µM
TGI (HS 578T breast): 4.47 µM
GI50 (SK-MEL-28 melanoma): 1.99 µM
TGI (SK-MEL-28 melanoma): 4.51 µM
GI50 (SK-MEL-5 melanoma): 0.724 µM
TGI (SK-MEL-5 melanoma): 2.01 µM
GI50 (UACC-257 melanoma): 2.49 µM
TGI (UACC-257 melanoma): 5.78 µM
GI50 (NCI-H460 lung): 1 µM
TGI (NCI-H460 lung): 3.4 µM
GI50 (SF-539 CNS): 1.61 µM
TGI (SF-539 CNS): 3.22 µM
GI50 (SK-MEL-2 melanoma): 1.6 µM
TGI (SK-MEL-2 melanoma): 4.23 µM

COC1C(OC(=O)c2ccc(C)[nH]2)C(O)C(Oc2ccc3c(O)c(NC(=O)c4c[nH]c(C(=O)Nc5c(O)c6ccc(OC7OC(C)(C)C(OC)C(OC(=O)c8ccc(C)[nH]8)C7O)c(C)c6oc5=O)c4C)c(=O)oc3c2C)OC1(C)C (centres undefined)
TGI (NCI-H23 lung): 3.84 µM
TGI (OVCAR-8 ovarian): > 100 µM
TGI (SK-MEL-28 melanoma): 2.25 µM
TGI (SK-MEL-5 melanoma): 6.51 µM
TGI (UACC-257 melanoma): 33.5 µM
TGI (NCI-H460 lung): 6.62 µM
TGI (SK-MEL-2 melanoma): 4.42 µM

Cc1ccc(/C=C/c2c(C(=O)/C=C/c3ccccc3)c(C)nc3ccccc23)cc1
GI50 (NCI-H23 lung): 1.64 µM
TGI (NCI-H23 lung): 3.78 µM
GI50 (OVCAR-8 ovarian): 1.83 µM
TGI (OVCAR-8 ovarian): 5.46 µM
GI50 (SK-MEL-28 melanoma): 1.77 µM
TGI (SK-MEL-28 melanoma): 3.27 µM
GI50 (SK-MEL-5 melanoma): 1.71 µM
TGI (SK-MEL-5 melanoma): 3.11 µM
GI50 (UACC-257 melanoma): 1.86 µM
TGI (UACC-257 melanoma): 4.02 µM
GI50 (NCI-H460 lung): 1.37 µM
TGI (NCI-H460 lung): 2.99 µM
GI50 (MDA-MB-435): 2.1 µM
TGI (MDA-MB-435): 5.59 µM
GI50 (SF-539 CNS): 1.74 µM
TGI (SF-539 CNS): 3.19 µM

C/C(CC(=O)Nc1cccc(Cl)c1C)=N\NC(N)=S
TGI (NCI-H23 lung): > 100 µM
TGI (OVCAR-8 ovarian): > 100 µM
TGI (SK-MEL-28 melanoma): > 100 µM
TGI (SK-MEL-5 melanoma): > 100 µM
TGI (UACC-257 melanoma): > 100 µM
TGI (NCI-H460 lung): > 100 µM
TGI (SF-539 CNS): > 100 µM
TGI (SK-MEL-2 melanoma): > 100 µM

COc1ccccc1N=Nc1c(-c2ccccc2)nn(C(=O)CC(=O)Nc2cccc(C)c2)c1-c1ccccc1
TGI (NCI-H23 lung): > 100 µM
TGI (OVCAR-8 ovarian): > 100 µM
TGI (SK-MEL-28 melanoma): > 100 µM
TGI (SK-MEL-5 melanoma): 97.8 µM
TGI (UACC-257 melanoma): > 100 µM
TGI (NCI-H460 lung): > 100 µM
TGI (SF-539 CNS): > 100 µM

CCO/C=C1\N=C(c2ccc(Cl)c(Cl)c2)OC1=O
TGI (NCI-H23 lung): > 100 µM
TGI (OVCAR-8 ovarian): > 100 µM
TGI (SK-MEL-28 melanoma): > 100 µM
TGI (SK-MEL-5 melanoma): > 100 µM
TGI (UACC-257 melanoma): > 100 µM
TGI (NCI-H460 lung): > 100 µM
TGI (SF-539 CNS): > 100 µM
TGI (SK-MEL-2 melanoma): > 100 µM

CC(C)N(C(=O)c1cccc(C(=O)N(C(C)C)C(C)C)c1)C(C)C
TGI (NCI-H23 lung): > 100 µM
TGI (OVCAR-8 ovarian): > 100 µM
TGI (SK-MEL-28 melanoma): > 100 µM
TGI (SK-MEL-5 melanoma): > 100 µM
TGI (UACC-257 melanoma): > 100 µM
TGI (NCI-H460 lung): > 100 µM
TGI (SF-539 CNS): > 100 µM
TGI (SK-MEL-2 melanoma): > 100 µM

C#CC1(O)CCC2C3CCc4cc(Oc5nc(F)nc(-c6c7ccccc7c7n6CCS7)n5)ccc4C3CC[C@@]21C (some centres undefined)
TGI (NCI-H23 lung): 42.7 µM
TGI (OVCAR-8 ovarian): > 100 µM
TGI (SK-MEL-28 melanoma): 57.9 µM
TGI (SK-MEL-5 melanoma): 45.5 µM
TGI (UACC-257 melanoma): > 100 µM
TGI (NCI-H460 lung): > 100 µM
TGI (SF-539 CNS): 33 µM
TGI (SK-MEL-2 melanoma): 23.9 µM

CCCn1c2c(c3c(O)cccc31)C(=O)c1ccccc1-2
GI50 (NCI-H23 lung): 11.5 µM
TGI (NCI-H23 lung): > 100 µM
GI50 (OVCAR-8 ovarian): 22.5 µM
TGI (OVCAR-8 ovarian): > 100 µM
GI50 (HS 578T breast): 33.1 µM
TGI (HS 578T breast): > 100 µM
GI50 (SK-MEL-28 melanoma): 10.4 µM
TGI (SK-MEL-28 melanoma): 39.1 µM
GI50 (SK-MEL-5 melanoma): 11.9 µM
TGI (SK-MEL-5 melanoma): > 100 µM
GI50 (UACC-257 melanoma): 22.9 µM
TGI (UACC-257 melanoma): 96.5 µM
GI50 (NCI-H460 lung): 22.1 µM
TGI (NCI-H460 lung): > 100 µM
GI50 (MDA-MB-435): > 100 µM
TGI (MDA-MB-435): > 100 µM
GI50 (SK-MEL-2 melanoma): 87 µM
TGI (SK-MEL-2 melanoma): > 100 µM

C=C1CC(CC)(CCN2C(=O)c3ccccc3C2=O)OC1=O (centres undefined)
TGI (NCI-H23 lung): 29.9 µM
TGI (OVCAR-8 ovarian): 36.2 µM
TGI (SK-MEL-5 melanoma): 26.1 µM
TGI (UACC-257 melanoma): 27 µM
TGI (NCI-H460 lung): > 100 µM
TGI (SF-539 CNS): 46.6 µM
TGI (SK-MEL-2 melanoma): 29.2 µM

CNC(=O)NCC1OC(n2cnc3c(NC(=O)Nc4ccccc4)ncnc32)C(O[Si](C)(C)C(C)(C)C)C1O[Si](C)(C)C(C)(C)C (centres undefined)
GI50 (NCI-H23 lung): 3.17 µM
TGI (NCI-H23 lung): 9.07 µM
GI50 (OVCAR-8 ovarian): 4.01 µM
TGI (OVCAR-8 ovarian): 40.1 µM
GI50 (SK-MEL-5 melanoma): 1.98 µM
TGI (SK-MEL-5 melanoma): 4.75 µM
GI50 (UACC-257 melanoma): 3.78 µM
TGI (UACC-257 melanoma): 20.2 µM
GI50 (NCI-H460 lung): 1.72 µM
TGI (NCI-H460 lung): 3.49 µM
GI50 (MDA-MB-435): 3.41 µM
TGI (MDA-MB-435): 29.1 µM
GI50 (SF-539 CNS): 3.07 µM
TGI (SF-539 CNS): 13 µM
GI50 (SK-MEL-2 melanoma): 2.45 µM
TGI (SK-MEL-2 melanoma): 5.54 µM

COc1cc(CNc2nc3c(N)cc(C(F)(F)F)cc3nc2-c2ccccc2)cc(OC)c1OC
TGI (NCI-H23 lung): > 100 µM
TGI (OVCAR-8 ovarian): > 100 µM
TGI (SK-MEL-28 melanoma): > 100 µM
TGI (SK-MEL-5 melanoma): > 100 µM
TGI (UACC-257 melanoma): > 100 µM
TGI (NCI-H460 lung): > 100 µM
GI50 (SF-539 CNS): > 100 µM
TGI (SF-539 CNS): > 100 µM
TGI (SK-MEL-2 melanoma): > 100 µM
